Earlier results as cited in patent US6596884B2, “Synthesis of hydrogen peroxide” (University of Pittsburgh, priority 1998, dated 2003).

Details: obtained by extrapolation of the data from Santacesaria et al., Ind. Eng. Chem. Res., 1994, 33, 277

Structure (SMILES): CCc1ccc2c(c1)C(=O)c1ccccc1C2=O [Entry 2-EtAQ]
- kc: 0.47^(3) cm^3/(g s)
